Experimental data as given in US10494380B2, “Nitrogen-containing tricyclic derivatives having HIV replication inhibitory activity” (priority 2015, dated 2019).
Read-outs that look alike come from different tables or passages of the source.

What was measured:
[1] = system: HIV (HTLV-IIIB strain); experiment: HIV replication inhibition assay (Test Example 1; MT-4 cells, MTT); format: cell-based; conditions: MT-4 cells, MTT; for EC90: read-out: EC90; for EC50: read-out: EC50
Experimental: HIV (HTLV-IIIB strain) persistent infected human T cell strain Molt-4 clone8 was cultured in RPMI-1640 medium supplemented with 10% fetal bovine serum and the supernatant was filtered, then the virus titer was measured and stored at −80° C. Each anti-human immunodeficiency virus active substance was diluted with the above culture medium to the designated concentration, which was dispensed into 96-well microtiter plate by 50 μL. Next, 100 μL of MT-4 cell suspension (2.5×10^4 cells) was dispensed into each well, then 50 μl of the above HIV-containing supernatant diluted with the above culture medium was added thereto (60 pfu (plaque forming unit)).
Cell mixture was cultured at 37° C. in CO2 incubator for four days, then 30 μL of MTT (3-(4,5-dimethylthiazole-2-yl)-2,5-diphenyltetrazolyum bromide) reagent (5 mg/mL in PBS) was added to all wells followed by incubation for 1 hour. In this step, MTT was reduced to insoluble formazan in living cells. To elute generated formazan 150 μL of the culture supernatant was removed from all wells, then 150 μL of cell lysis solution (10% Triton X-100 and 0.4% (v/v)-HCl containing isopropanol) was added thereto, followed by shaking with a plate mixer. The formazan was measured with micro plate reader at OD: 560 nm and 690 nm (reference wavelength) and the result was compared with the reference wells. EC50 and EC90 mean the compound concentration at which cytotoxicity caused by virus infection is inhibited 50% and 90%, respectively.

[2] = system: T125A mutant virus (HIV-1 NL-432 recombinant molecular clone, IN gene); experiment: HIV replication inhibition assay against integrase 124/125 mutant virus (Test Example 2); format: cell-based
Outline: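 EC50 is the compound concentration blocking half of virus-induced cell death, measured by MTT (OD 560 nm, 690 nm reference) after 4 days at 37 °C. Integrase 124/125 mutant NL-432 virus from transfected 293T cells (60 pfu) was added to 2.5×10^4 MT-4 cells with compound.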

[3] = system: sheep red blood cells (RBC); experiment: Photohemolysis test (Test Example 13); format: cell-based; conditions: 0.0008 to 0.1 w/v %, 10 J/cm2 UV-irradiation (290-400 nm)
Text: Aliquots of sheep red blood cells (RBC) suspension prepared with medium to make a 2.5 v/v % concentration are dispensed into microplates. The compound of the present invention was desolved with a vehicle to make target concentrations and then these solutions were immediately added (in concentrations of 0.0008 to 0.1 w/v %) into the microplates. The mixtures on the microplates were exposed to 10 J/cm2 of UV-irradiation (UV-A and UV-B, 290-400 nm) with a GL20SE lamp (SANKYO DENKI) and a FL20S-BLB lamp (Panasonic). After the UV-irradiation, the mixtures were centrifuged. Aliquots of supernatant were transferred to a microplate. Absorbance of the supernatants was measured at 540 nm and 630 nm for judgement of the potential of phototoxicity. In the study, two endpoints were evaluated in biomembrane impairment (% of photohemolysis index; PI) and hyperoxidation of lipid membrane (methemoglobin formation; met-Hb) with the absorbance at 540 nm and 630 nm, respectively. PI and met-Hb were assessed based on the negative criteria (−), PI<10% and changes in absorbance at 630 nm<0.05, respectively. All else was judged as positive (+).

[4] = system: HIV; format: cell-based; conditions: EC50 in the presence of human serum (25%) versus without human serum, MT-4 cells
Outline: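 HIV-infected MT-4 cells (3×10^4/well, infected 1 h at 37° C) are grown 4 days with compound that was first mixed 1 h with human serum or with medium only. Potency shift is the EC50 with serum divided by the EC50 without serum.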

[5] = biological target: CYP3A4 (Homo sapiens (Human), UniProt P08684); experiment: CYP3A4 (MDZ) MBI test (Test Example 6); conditions: pooled human liver microsomes, midazolam 1-hydroxylation, preincubation 0 or 30 min
[6] = biological target: CYP2C9 (Homo sapiens (Human), UniProt P11712); experiment: CYP inhibition assay, tolbutamide methyl-hydroxylation (Test Example 4); format: in vitro ADME; conditions: pooled human hepatic microsome, 100 μmol/L tolbutamide, 15 minutes, 37° C.
Experimental: Using commercially available pooled human hepatic microsome, and employing, as markers, 7-ethoxyresorufin O-deethylation (CYP1A2), tolbutamide methyl-hydroxylation (CYP2C9), mephenytoin 4′-hydroxylation (CYP2C19), dextromethorphan O-demethylation (CYP2D6), and terfenadine hydroxylation (CYP3A4) as typical substrate metabolism reactions of human main five CYP enzyme forms (CYP1A2, 2C9, 2C19, 2D6, 3A4) an inhibitory degree of each metabolite production amount by a test compound was assessed.
The reaction conditions were as follows: substrate, 0.5 μmol/L ethoxyresorufin (CYP1A2), 100 μmol/L tolbutamide (CYP2C9), 50 μmol/L S-mephenytoin (CYP2C19), 5 μmol/L dextromethorphan (CYP2D6), 1 μmol/L terfenedine (CYP3A4); reaction time, 15 minutes; reaction temperature, 37° C.; enzyme, pooled human hepatic microsome 0.2 mg protein/mL; test drug concentration, 1, 5, 10, 20 μmol/L (four points).
Each five kinds of substrates, human hepatic microsome, and a test drug in 50 mmol/L Hepes buffer as a reaction solution was added to a 96-well plate as the composition ad described above, NADPH, as a coenzyme was added to initiate metabolism reactions as markers and, after the incubation at 37° C. for 15 minutes, a methanol/acetonitrile=1/1 (V/V) solution was added to stop the reaction. After the centrifugation at 3000 rpm for 15 minutes, resorufin (CYP1A2 metabolite) in the supernatant was quantified by a fluorescent multilabel counter and tolbutamide hydroxide (CYP2C9 metabolite), mephenytoin 4′ hydroxide (CYP2C19 metabolite), dextrorphan (CYP2D6 metabolite), and terfenadine alcohol (CYP3A4 metabolite) were quantified by LC/MS/MS.

[7] = Human immunodeficiency virus 1, MT4, 96 h, HIV (HTLV-IIIB strain), four days
[8] = Human immunodeficiency virus 1, MT4, read-out: EC50 against T125A mutant virus, T125A mutant virus (HIV-1 NL-432 IN gene), MT-4 cells, MTT
[9] = HIV (HTLV-IIIB strain), four days
[10] = T125A mutant virus (HIV-1 NL-432 IN gene), MT-4 cells, MTT, read-out: EC50 against T125A mutant virus

CYP3A4, sequence (P08684 whole entry): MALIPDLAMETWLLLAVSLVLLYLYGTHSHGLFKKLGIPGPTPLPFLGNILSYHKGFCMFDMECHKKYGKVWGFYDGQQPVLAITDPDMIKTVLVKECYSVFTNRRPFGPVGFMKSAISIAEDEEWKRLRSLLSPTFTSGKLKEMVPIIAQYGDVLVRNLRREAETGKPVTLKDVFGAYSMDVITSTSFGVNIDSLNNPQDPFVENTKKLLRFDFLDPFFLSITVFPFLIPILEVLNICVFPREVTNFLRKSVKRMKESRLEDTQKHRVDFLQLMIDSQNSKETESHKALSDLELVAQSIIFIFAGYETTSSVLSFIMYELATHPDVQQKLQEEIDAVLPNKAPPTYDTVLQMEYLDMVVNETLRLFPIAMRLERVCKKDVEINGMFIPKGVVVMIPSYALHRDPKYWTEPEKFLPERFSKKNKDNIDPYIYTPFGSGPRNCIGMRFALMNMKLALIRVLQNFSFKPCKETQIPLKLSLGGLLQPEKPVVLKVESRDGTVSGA
CYP2C9, sequence (P11712 whole entry): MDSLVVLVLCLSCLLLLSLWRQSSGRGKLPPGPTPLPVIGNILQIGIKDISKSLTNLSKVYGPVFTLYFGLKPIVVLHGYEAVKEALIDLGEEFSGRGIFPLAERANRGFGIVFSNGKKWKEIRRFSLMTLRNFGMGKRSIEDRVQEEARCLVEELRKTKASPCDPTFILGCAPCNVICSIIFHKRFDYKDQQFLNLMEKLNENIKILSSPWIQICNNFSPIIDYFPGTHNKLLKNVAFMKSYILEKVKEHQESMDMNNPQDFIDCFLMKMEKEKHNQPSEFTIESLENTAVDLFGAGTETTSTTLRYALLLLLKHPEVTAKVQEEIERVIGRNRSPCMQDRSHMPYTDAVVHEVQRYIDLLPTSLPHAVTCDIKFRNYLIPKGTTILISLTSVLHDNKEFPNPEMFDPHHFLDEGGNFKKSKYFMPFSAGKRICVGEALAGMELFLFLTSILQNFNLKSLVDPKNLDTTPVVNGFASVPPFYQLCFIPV

`Cc1ccc(-c2c([C@H](OC(C)(C)C)C(=O)O)c(C)c3c4c2cc(C)n4C(C)CN3CCN(C)C)cc1` (single isomer, unassigned) [Compound I-164] was tested, and the EC90 [1, 7] was 20 nM, the EC50 ([1]; Human immunodeficiency virus 1, MT4, 96 h, HIV HTLV-IIIB strain, cultured four days) was 11 nM and the EC50 [2, 8] was 42 nM. The “Photohemolysis test, potential of phototoxicity (PI and met-Hb)” value (“Photohemolysis test, potential” below) [3] was “(−) (negative criteria (−), PI<10% and changes in absorbance at 630 nm<0.05, respectively)”, the Potency shift value [4] was 2.6 and the “CYP3A4 (MDZ) MBI, shifted IC” value [5] was “(−) (When a shifted IC was 1.0 or less, this was defined as negative)”. It also gave an IC50 [6] greater than 20000 nM.

`Cc1ccc(-c2c([C@H](OC(C)(C)C)C(=O)O)c(C)c3c4c2cc(C)n4CCN3S(C)(=O)=O)cc1` [Compound I-003] showed an EC50 [1, 7] of 1.3 nM, an EC90 [1, 7] of 1.7 nM and an EC50 [2, 8] of 8.9 nM. The “Photohemolysis test, potential” value [3] was “(−) (negative criteria (−), PI<10% and changes in absorbance at 630 nm<0.05, respectively)”, the Potency shift value [4] was 14 and the “CYP3A4 (MDZ) MBI, shifted IC” value [5] was “(−) (When a shifted IC was 1.0 or less, this was defined as negative)”.

In the case of `Cc1c([C@H](OC(C)(C)C)C(=O)O)c(-c2ccc(Cl)cc2)c2cc(C)n3c2c1N(S(C)(=O)=O)CC3` [Compound I-019], the EC50 [1, 9] is reported as 1.2 nM, the EC90 [1, 9] is reported as 1.6 nM and the EC50 [2, 10] is reported as 6.6 nM. For the same molecule, the Potency shift value [4] was 16 and the “CYP3A4 (MDZ) MBI, shifted IC” value [5] was “(−) (When a shifted IC was 1.0 or less, this was defined as negative)”.

In the case of `Cc1ccc(-c2c(C(OC(C)(C)C)C(=O)O)c(C)c3c4c2cc(C)n4CCN3CCN(C)C)cc1` (stereo not drawn) [Compound I-027], the EC50 [1, 9] is reported as 9.9 nM, the EC90 [1, 9] is reported as 16 nM and the EC50 [2, 10] is reported as 26 nM. The “Photohemolysis test, potential” value [3] was “(−) (negative criteria (−), PI<10% and changes in absorbance at 630 nm<0.05, respectively)”, the Potency shift value [4] was 1.4 and the “CYP3A4 (MDZ) MBI, shifted IC” value [5] was “(−) (When a shifted IC was 1.0 or less, this was defined as negative)”. It also gave an IC50 [6] greater than 20000 nM.

With `Cc1c([C@H](OC(C)(C)C)C(=O)O)c(-c2ccc(Cl)cc2)c2cc(C)n3c2c1N(S(C)(=O)=O)[C@@H](CC(F)F)C3` [Compound I-041] the EC50 [1, 7] was 1.5 nM, the EC90 [1, 7] was 2.3 nM and the EC50 [2, 8] was 13 nM. The “Photohemolysis test, potential” value [3] was “(−) (negative criteria (−), PI<10% and changes in absorbance at 630 nm<0.05, respectively)”, the Potency shift value [4] was 4.1 and the “CYP3A4 (MDZ) MBI, shifted IC” value [5] was “(−) (When a shifted IC was 1.0 or less, this was defined as negative)”. For the same molecule, the IC50 [6] was greater than 20000 nM.

For `COCC[C@H]1Cn2c(C)cc3c(-c4ccc(Cl)cc4)c([C@H](OC(C)(C)C)C(=O)O)c(C)c(c32)N1S(C)(=O)=O` [Compound I-043], the EC50 [1, 9] was 1.4 nM, the EC90 [1, 9] was 2.3 nM and the EC50 [2, 10] was 11 nM. For the same molecule, the “Photohemolysis test, potential” value [3] was “(−) (negative criteria (−), PI<10% and changes in absorbance at 630 nm<0.05, respectively)”, the Potency shift value [4] was 3.2 and the “CYP3A4 (MDZ) MBI, shifted IC” value [5] was “(−) (When a shifted IC was 1.0 or less, this was defined as negative)”. For the same molecule, the IC50 [6] was greater than 20000 nM.
